Converted amounts (≈) assume the structure as drawn. “And” between values parts separate entries of the source, which are not always exact repeats. Equal entries are not always repeated.
Experiments:
T. evansi = test: Antitrypanosomal activity in vivo in white albino rats (Giemsa blood smears); settings: individual animals
Description: The antitrypanosomal activity of the present compounds was evaluated in vivo on 40 white albino rats. The rats were divided into 4 groups of 10 rats each. The rats were then inoculated intraperitoneally with 10^3 organisms of T. evansi (isolated from blood of naturally infected camels) in accordance with known methodology (see Kolmer, J. A., J. Infect. Dis., 17:78-95 (1915)). The progress of the infection was monitored with the aid of standard Giemsa procedure (see Cruickshank, R., Handbook of Bacteriology, E and S Livingstone Ltd., Edinborough and London, 1961), whereby peripheral blood samples from the rats were examined under microscope. The number of Trypanosoma organisms in every blood sample was calculated and classified as follows (the numbers below are given for fields examined on a microscope slide): • +++=>10 organisms • ++=5-10 organisms • +=1-4 organisms • 0=no organisms detected
On day 1 post infection, each group of rats was subcutaneously injected with a single dose of tested compound in an amount of 50.0 mg/kg body weight. The following drugs were administered:
Group #4: saline solution (control group)

[1] = test system: Staphylococcus (ATCC 6538); test: M.I.C. by broth dilution method (NCCLS 1988), gram-positive bacteria; type: cell-based; settings: for MIC: ATCC6538, in vitro broth dilution, read-out: M.I.C. values Staph. (ATCC 6538)
Description: (§1) The antibacterial activity of the present compounds was investigated by in vitro evaluation of their M.I.C. (Minimum Inhibitory Concentration) values. The evaluation was conducted in complete accordance with the “Broth dilution method”, as outlined by the U.S. National Committee for Clinical Laboratory Standards “NCCLS 1988”.
(§2) Solutions of the present compounds were prepared by dissolving 0.01 g of a test compound in either 10% KOH (aq) or a 10% KOH/DMF mixture, after which sterile, distilled H2O was added up to a total volume of 10 ml, thereby yielding a test compound concentration of 1 000 μg/ml.
(§3) In this evaluation, the antibacterial activity of the present compounds and enrofloxacin as reference compound was tested against seven strains of gram-positive bacteria, namely Bacillus subtilus (ATCC 6633), Bacillus cereus, Streptococcus faecium, Micrococcus Luteus (ATCC 9341), Staph. aureus (ATCC 29737), Staph. epidermidis (ATCC 12228) and Staphylococcus (ATCC 6538).

[2] = test system: Micrococcus Luteus (ATCC 9341); test: as above; type: cell-based; settings: for MIC: ATCC9341, in vitro broth dilution, read-out: M.I.C. values Microc. Luteus
Description: as §1, §2, §3

Bacillus cereus = test: as above; type: cell-based; settings: in vitro broth dilution
Description: as §1, §2, §3

Streptococcus faecium = test: as above; type: cell-based; settings: in vitro broth dilution; for MIC: Enterococcus faecium, read-out: M.I.C. values Streptoc. faecium
Description: as §1, §2, §3

[3] = test system: Bacillus subtilus (ATCC 6633); test: as above; type: cell-based; settings: for MIC: ATCC6633, in vitro broth dilution
Description: as §1, §2, §3

[4] = test system: Staph. epidermidis (ATCC 12228); test: as above; type: cell-based; settings: for MIC: Staphylococcus epidermidis, ATCC12228, in vitro broth dilution
Description: as §1, §2, §3

[5] = test system: Staph. aureus (ATCC 29737); test: as above; type: cell-based; settings: for MIC: Staphylococcus aureus, ATCC29737, in vitro broth dilution
Description: as §1, §2, §3

[6] = test system: Eimeria acervulina, E. maxima, E. necatrix, E. tenella and E. brunetti; test: Prophylactic anticoccidial activity in chickens of Habbared X breed (5 Eimeria strains); type: in vivo; settings: drug in feed (JA 39, JA 42 100 ppm; Coxistac 60 ppm)
Description: The anticoccidial activity of the present compounds as prophylactic agents was evaluated in vivo on […] one day old (1 day after hatch) chickens of Habbared X breed. The chickens were divided into four groups of 20 birds each, and each group was located in a separate pen (1 m×1 m). The chickens were then fed with unmedicated food up to day 7 after hatch. Fresh water was supplied ad libitum .
On day 8 after hatch, the four groups were fed as follows (1 ppm=1 mg drug/kg feed): • Group #1: feed containing JA 39 (100 ppm); • Group #2: feed containing JA 42 (100 ppm); • Group #3: feed containing Coxistac (60 ppm), a known anticoccidial agent (see U.S. Pat. No. 3,857,948);
Group #4: feed containing no drug (control group).
The chickens were fed as above on day 8 and 9 after hatch. On day 10 after hatch, each chicken was infected orally by 6 000-7 000 oocysts containing a mixture of 5 mature sporulated strains, namely Eimeria acervulina, E. maxima, E. necatrix, E. tenella and E. brunetti. The groups #1-3 received drug as above from day 10 to 21 after hatch.
From day 14 to 21 after hatch, fresh fecal droplets were collected and examined daily. The average number of oocysts/g faeces was then calculated in accordance with the so-called Mc-Master technique (Soulsby, E. J., Helminths, Arthropods & Protozoa of domesticated animals, p. 789, 6th Ed., Williams & Wilkins Co. Baltimore (USA), Tindall & Cassell Ltd., London, 1968). The final weight of and mean total amount of feed consumed by each bird were also examined, and the results are summarized in Table 8 hereinbelow.

[7] = day 1 post infection (day of dosing), single s.c. dose 50.0 mg/kg
[8] = day 3 post infection, single s.c. dose 50.0 mg/kg on day 1, 50 mg/kg
[9] = day 9 post infection, single s.c. dose 50.0 mg/kg on day 1, 50 mg/kg
[10] = day 11 post infection, single s.c. dose 50.0 mg/kg on day 1, 50 mg/kg
[11] = in vitro broth dilution, unit assumed

| SMILES | MIC [1] | MIC [2] | MIC (Bacillus cereus) | MIC (Streptococcus faecium) | MIC [3] | MIC [4] | MIC [5] | other results |
| --- | --- | --- | --- | --- | --- | --- | --- | --- |
| O=C(O)c1cn(C2CC2)c2cc(N3CCC(CNC(=S)Nc4ccccc4)CC3)c(F)cc2c1=O [JA 110, 7-(4-{[(anilinocarbothioyl)amino]methyl}-1-piperidinyl)-1-cyclopropyl-6-fluoro-4-oxo-1,4-dihydro-3-quinolinecarboxylic acid] | – | – | – | – | – | – | – | Number of T. evansi per examined field (T. evansi; [7]): + (+=1-4 organisms); Number of T. evansi per examined field (T. evansi; [8]): ++ (++=5-10 organisms); Number of T. evansi per examined field (T. evansi; day 5 post infection, single s.c. dose 50.0 mg/kg on day 1): ++ (++=5-10 organisms); Number of T. evansi per examined field (T. evansi; day 7 post infection, single s.c. dose 50.0 mg/kg on day 1): ++ (++=5-10 organisms); Number of T. evansi per examined field (T. evansi; [9]): + (+=1-4 organisms) and 0 (0=no organisms detected) (9×); Number of T. evansi per examined field (T. evansi; [10]): + (+=1-4 organisms) and 0 (0=no organisms detected) (9×); Number of T. evansi per examined field (T. evansi; day 13 post infection, single s.c. dose 50.0 mg/kg on day 1): 0 (0=no organisms detected) |
| CC(C)c1ccc(Nc2cc3c(cc2F)c(=O)c(C(=O)O)cn3C2CC2)cc1 [JA 74, 1-cyclopropyl-6-fluoro-7-(4-isopropylanilino)-4-oxo-1,4-dihydro-3-quinolinecarboxylic acid] | 0.12 µg/mL (≈ 0.315 µM) | 2 µg/mL (≈ 5.26 µM) | 0.12 µg/mL (≈ 0.315 µM) | 2 µg/mL (≈ 5.26 µM) | 0.12 µg/mL (≈ 0.315 µM) | 0.12 µg/mL (≈ 0.315 µM) | 0.12 µg/mL (≈ 0.315 µM) | Number of T. evansi per examined field (T. evansi; [7]): + (+=1-4 organisms); Number of T. evansi per examined field (T. evansi; [8]): ++ (++=5-10 organisms); Number of T. evansi per examined field (T. evansi; day 5 post infection, single s.c. dose 50.0 mg/kg on day 1, 50 mg/kg): +++ (+++=>10 organisms) and 0 (0=no organisms detected) (6×) and ++ (++=5-10 organisms) (2×) and + (+=1-4 organisms); Number of T. evansi per examined field (T. evansi; day 7 post infection, single s.c. dose 50.0 mg/kg on day 1, 50 mg/kg): dead and 0 (0=no organisms detected) (9×); Number of T. evansi per examined field (T. evansi; [9]): dead and 0 (0=no organisms detected) (9×); Number of T. evansi per examined field (T. evansi; [10]): dead and 0 (0=no organisms detected) (9×); Number of T. evansi per examined field (T. evansi; day 13 post infection, single s.c. dose 50.0 mg/kg on day 1, 50 mg/kg): dead and 0 (0=no organisms detected) (9×) |
| CC[C@@H](C(=O)[C@@H](C)[C@@H](O)[C@H](C)[C@@H]1O[C@@H]([C@@H](CC)C(=O)O)CC[C@@H]1C)[C@H]1O[C@]2(C=C[C@@H](O)[C@]3(CC[C@@](C)([C@H]4CC[C@](O)(CC)[C@H](C)O4)O3)O2)[C@H](C)C[C@@H]1C [Coxistac, reference compound] | – | – | – | – | – | – | – | Average number of Eimeria spp. oocysts/g faeces, day after hatch 14 ([6]; day 14 after hatch, infected day 10): 0.0 oocysts/g faeces; Average number of Eimeria spp. oocysts/g faeces, day after hatch 15 ([6]; day 15 after hatch, infected day 10): 3000 oocysts/g faeces; Average number of Eimeria spp. oocysts/g faeces, day after hatch 16 ([6]; day 16 after hatch, infected day 10): 4000 oocysts/g faeces; Average number of Eimeria spp. oocysts/g faeces, day after hatch 17 ([6]; day 17 after hatch, infected day 10): 7000 oocysts/g faeces; Average number of Eimeria spp. oocysts/g faeces, day after hatch 18 ([6]; day 18 after hatch, infected day 10): 2000 oocysts/g faeces; Average number of Eimeria spp. oocysts/g faeces, day after hatch 19 ([6]; day 19 after hatch, infected day 10): 2000 oocysts/g faeces; Average number of Eimeria spp. oocysts/g faeces, day after hatch 21 ([6]; day 21 after hatch, infected day 10): 0.0 oocysts/g faeces; Mean body weight ([6]; final weight, infected chickens): 62.0 g; Mean amount of feed consumed ([6]; mean total feed per bird, infected chickens): 120 g; Average number of Eimeria spp. oocysts/g faeces, Total ([6]; total of days 14-21 after hatch): 18000 oocysts/g faeces |
| O=C(O)c1cn(C2CC2)c2cc(N(CC3CCCO3)S(=O)(=O)c3ccc4ccccc4c3)c(F)cc2c1=O (stereo not shown) [JA 136, 1-cyclopropyl-6-fluoro-7-[(2-naphthylsulfonyl)(tetrahydro-2-furanylmethyl)amino]-4-oxo-1,4-dihydro-3-quinolinecarboxylic acid] | 0.12 µg/mL (≈ 0.224 µM) | 2 µg/mL (≈ 3.73 µM) | 0.06 µg/mL (≈ 0.112 µM) | 0.5 µg/mL (≈ 0.932 µM) | 0.12 µg/mL (≈ 0.224 µM) | 0.12 µg/mL (≈ 0.224 µM) | 0.12 µg/mL (≈ 0.224 µM) | – |
| CCn1cc(C(=O)O)c(=O)c2cc(F)c(N3CCN(S(=O)(=O)c4ccc(OC)cc4)CC3)cc21 [JA 21, 1-ethyl-6-fluoro-7-{4-[(4-methoxyphenyl)sulfonyl]-1-piperazinyl}-4-oxo-1,4-dihydro-3-quinolinecarboxylic acid] | 0.06 µg/mL (≈ 0.123 µM) | 2 µg/mL (≈ 4.09 µM) | 0.01 µg/mL (≈ 0.0204 µM) | 0.5 µg/mL (≈ 1.02 µM) | 0.25 µg/mL (≈ 0.511 µM) | 0.06 µg/mL (≈ 0.123 µM) | 0.25 µg/mL (≈ 0.511 µM) | – |
| O=C(O)c1cn(C2CC2)c2cc(N(CCc3ccncc3)CC3CCCO3)c(F)cc2c1=O (stereo not shown) [JA 145, 1-cyclopropyl-6-fluoro-4-oxo-7-[[2-(4-pyridinyl)ethyl](tetrahydro-2-furanylmethyl)amino]-1,4-dihydro-3-quinolinecarboxylic acid] | 0.12 µg/mL (≈ 0.266 µM) | 2 µg/mL (≈ 4.43 µM) | 0.12 µg/mL (≈ 0.266 µM) | 1 µg/mL (≈ 2.21 µM) | 0.12 µg/mL (≈ 0.266 µM) | 0.12 µg/mL (≈ 0.266 µM) | 0.12 µg/mL (≈ 0.266 µM) | – |
| O=C(O)c1ccc(CNc2cc3c(cc2F)c(=O)c(C(=O)O)cn3C2CC2)cc1 [JA 70, 7-[(4-carboxybenzyl)amino]-1-cyclopropyl-6-fluoro-4-oxo-1,4-dihydro-3-quinolinecarboxylic acid] | 0.12 µg/mL (≈ 0.303 µM) | 1 µg/mL (≈ 2.52 µM) | 0.12 µg/mL (≈ 0.303 µM) | 2 µg/mL (≈ 5.05 µM) | 0.25 µg/mL (≈ 0.631 µM) | 0.25 µg/mL (≈ 0.631 µM) | 0.12 µg/mL (≈ 0.303 µM) | – |
| CC(=O)CC(=O)N(CC1CCCO1)c1cc2c(cc1F)c(=O)c(C(=O)O)cn2C1CC1 (stereo not shown) [JA 144] | – | – | – | – | – | – | – | M.I.C. values Staph. (ATCC 6538) [1, 11]: 0.06 µg/mL; M.I.C. values Microc. Luteus [2, 11]: 1 µg/mL; M.I.C. values Bacillus cereus (Bacillus cereus; unit assumed): 0.12 µg/mL; M.I.C. values Streptoc. faecium (Streptococcus faecium; unit assumed): 0.5 µg/mL; M.I.C. values Bacillus subtilus [3, 11]: 0.12 µg/mL; M.I.C. values Staph. epidermidis [4, 11]: 0.12 µg/mL; M.I.C. values Staph. aureus [5, 11]: 0.12 µg/mL |
| CN(CCCN)CCCNc1cc2c(cc1F)c(=O)c(C(=O)O)cn2C1CC1 [JA 102, 7-({3-[(3-aminopropyl)(methyl)amino]propyl}amino)-1-cyclopropyl-6-fluoro-4-oxo-1,4-dihydro-3-quinolinecarboxylic acid] | 0.12 µg/mL (≈ 0.307 µM) | 2 µg/mL (≈ 5.12 µM) | 0.06 µg/mL (≈ 0.154 µM) | 1 µg/mL (≈ 2.56 µM) | 0.12 µg/mL (≈ 0.307 µM) | 0.12 µg/mL (≈ 0.307 µM) | 0.06 µg/mL (≈ 0.154 µM) | – |
